Assay results from PubChem BioAssay AID250 (DTP/NCI, 2004).
“And” between values parts separate entries of the source, which are not always exact repeats. Identical values can stand only once. Toxic doses and inconclusive results are not listed. How the source made its calls: active means survival T/C of 150% or more; inactive means T/C below 125% in these data.

Test system: BDF1 mice, L1210 leukemia sc, survival T/C
Assay: NCI In Vivo Anticancer Drug Screen. Data for tumor model L1210 Leukemia (subcutaneous) in B6D2F1 (BDF1) mice
Conditions: endpoint: median survival time, higher = longer survival
Method in brief: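 Mice carrying transplanted tumors received test compounds, and survival or tumor size was measured. Values are the treated-group measurement (T) divided by that of the vehicle-treated control group (C).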

[1] = dose: 360.0 mg/kg/injection, schedule: Q01DX Z (sc), vehicle: saline
[2] = dose: 23.0 mg/kg/injection, schedule: Q01DX Z (sc), vehicle: carboxymethylcellulose (CMC)
[3] = dose: 65.0 mg/kg/injection, schedule: Q01DX Z (sc), vehicle: saline
[4] = dose: 108.0 mg/kg/injection, schedule: Q01DX Z (sc), vehicle: saline
[5] = dose: 180.0 mg/kg/injection, schedule: Q01DX Z (sc), vehicle: saline
[6] = dose: 300.0 mg/kg/injection, schedule: Q01DX Z (sc), vehicle: saline
[7] = dose: 500.0 mg/kg/injection, schedule: Q01DX Z (sc), vehicle: saline

Measured: T/C

CN(C)c1ccc(/C=C/c2ccnc3ccccc23)cc1
inactive: dose: 0.65 mg/kg/injection, schedule: Q01DX Z (sc), vehicle: water 100 % of control | dose: 1.08 mg/kg/injection, schedule: Q01DX Z (sc), vehicle: water 100 % of control | dose: 1.8 mg/kg/injection, schedule: Q01DX Z (sc), vehicle: water 104 % of control | dose: 3.0 mg/kg/injection, schedule: Q01DX Z (sc), vehicle: water 100 % of control | dose: 5.0 mg/kg/injection, schedule: Q01DX Z (sc), vehicle: water 100 % of control | dose: 6.0 mg/kg/injection, schedule: Q01DX Z (sc), vehicle: water 100 % of control | dose: 8.4 mg/kg/injection, schedule: Q01DX Z (sc), vehicle: water 100 % of control | dose: 10.0 mg/kg/injection, schedule: Q01DX Z (sc), vehicle: water 100 % of control | dose: 14.0 mg/kg/injection, schedule: Q01DX Z (sc), vehicle: water 100 % of control | dose: 17.0 mg/kg/injection, schedule: Q01DX Z (sc), vehicle: water 100 % of control | dose: 28.0 mg/kg/injection, schedule: Q01DX Z (sc), vehicle: water 100 % of control | dose: 47.0 mg/kg/injection, schedule: Q01DX Z (sc), vehicle: water 100 % of control | dose: 78.0 mg/kg/injection, schedule: Q01DX Z (sc), vehicle: water 110 % of control | dose: 130.0 mg/kg/injection, schedule: Q01DX Z (sc), vehicle: water 100 % of control

CN(O)C(N)=O
active: [1] 150 % of control

CCC(=O)OCC1OC(n2cnc3c(=S)nc(N)[nH]c32)C(OC(=O)CC)C1OC(=O)CC (configuration not stated)
inactive: dose: 5.0 mg/kg/injection, schedule: Q01DX Z (sc), vehicle: carboxymethylcellulose (CMC) 100 % of control | dose: 14.0 mg/kg/injection, schedule: Q01DX Z (sc), vehicle: carboxymethylcellulose (CMC) 109 % of control | [2] 100 % of control

C1CN1c1nc(N2CC2)nc(N2CC2)n1
active: dose: 1.08 mg/kg/injection, schedule: Q01DX Z (sc), vehicle: saline 160 % of control
inactive: dose: 0.23 mg/kg/injection, schedule: Q01DX Z (sc), vehicle: saline 100 % of control | dose: 0.39 mg/kg/injection, schedule: Q01DX Z (sc), vehicle: saline 104 % of control and 105 % of control | dose: 0.65 mg/kg/injection, schedule: Q01DX Z (sc), vehicle: saline 112 % of control and 115 % of control | dose: 3.0 mg/kg/injection, schedule: Q01DX Z (sc), vehicle: saline 108 % of control | dose: 5.0 mg/kg/injection, schedule: Q01DX Z (sc), vehicle: saline 104 % of control and 120 % of control

O=c1[nH]c(=O)n(C2CC(O)C(CO)O2)cc1Br (configuration not stated)
inactive: [3] 111 % of control | [4] 111 % of control | [5] 111 % of control | [6] 111 % of control | [7] 122 % of control | dose: 833.0 mg/kg/injection, schedule: Q01DX Z (sc), vehicle: saline 122 % of control

O=NN(CCCl)C(=O)NC1CC2CCC1C2 (configuration not stated)
active: dose: 23.0 mg/kg/injection, schedule: Q01DX Z (oral), vehicle: carboxymethylcellulose (CMC) 305 % of control | [2] 321 % of control | dose: 39.0 mg/kg/injection, schedule: Q01DX Z (oral), vehicle: carboxymethylcellulose (CMC) 542 % of control | dose: 39.0 mg/kg/injection, schedule: Q01DX Z (sc), vehicle: carboxymethylcellulose (CMC) 500 % of control | dose: 65.0 mg/kg/injection, schedule: Q01DX Z (oral), vehicle: carboxymethylcellulose (CMC) 236 % of control | dose: 65.0 mg/kg/injection, schedule: Q01DX Z (sc), vehicle: carboxymethylcellulose (CMC) 289 % of control | dose: 108.0 mg/kg/injection, schedule: Q01DX Z (oral), vehicle: carboxymethylcellulose (CMC) 178 % of control

Cc1cc(N)c2cc(NC(=O)CCCCCCCCC(=O)Nc3ccc4nc(C)cc(N)c4c3)ccc2n1
inactive: [3] 91 % of control | [4] 91 % of control | dose: 130.0 mg/kg/injection, schedule: Q01DX Z (sc), vehicle: saline 91 % of control | [5] 91 % of control | dose: 216.0 mg/kg/injection, schedule: Q01DX Z (sc), vehicle: saline 91 % of control | [6] 91 % of control | [1] 91 % of control | [7] 95 % of control | dose: 600.0 mg/kg/injection, schedule: Q01DX Z (sc), vehicle: saline 91 % of control | dose: 1000.0 mg/kg/injection, schedule: Q01DX Z (sc), vehicle: saline 95 % of control
